Consider one compound from patent publication US4285941A, “Cephalosporin compounds and antibacterial drugs containing the same” (Eisai Co., Ltd., priority 1979, dated 1981).

In one data set the test system is Proteus morganii EP-14. The experiment in a line: Minimal inhibitory concentration (MIC), standard agar dilution method. Format: cell-based. As to conditions: Morganella morganii, EP14; Mueller Hinton agar, 37° C., 18 hours; Examples 1, 2, 4, 5, 6, 8 and 22 as sodium salts, others as free carboxylic acids. As to the method:
(§1) The compounds obtained in these examples were tested for their antibacterial activities in vitro. Minimal inhibitory concentration (MIC) was determined by the standard agar dilution method of the Japan Society of Chemotherapy. Compounds were dissolved in appropriate solvents (sterilized water for sodium salts and acetone-water [1:1] for free acids) and serial two-fold dilutions were made. Sodium salt of Cefazolin was chosen as the control compound. One-ml aliquots of each dilution were mixed with 9 ml of Mueller Hinton agar in petri-dishes to make agar plates containing the compound at serially diluted concentrations. After agar hardened, plates were put in an incubator at 37° C. for 1.5-2 hours with the lids slightly open to evaporate acetone off the plates. Test organisms were grown for 18 hours at 37° C. in Trypticase Soy broth and diluted in saline to approximately 10^6 colony forming units per ml. A loopful of each cell suspension was applied on the agar plate mentioned above and the plates were incubated for 18 hours at 37° C. before MIC was determined. MIC values of the compounds of Examples 1, 2, 4, 5, 6, 8 and 22 were determined as their sodium salts and those of other compounds as free carboxylic acids.

Data set [1] has as its system Staphylococcus aureus 209-P. The description is as above. Format: cell-based. As to conditions: Mueller Hinton agar, 37° C., 18 hours, Examples 1, 2, 4, 5, 6, 8 and 22 as sodium salts, others as free carboxylic acids. As to the method:
as §1

In data set [2] the test system is Pseudomonas aeruginosa EP-172. Described as above. The following applies: EP172, Mueller Hinton agar, 37° C., 18 hours, Examples 1, 2, 4, 5, 6, 8 and 22 as sodium salts, others as free carboxylic acids. Format: cell-based. As to the method: as §1
Data set [3] has as its system Klebsiella pneumoniae EK-6. Described as above. Format: cell-based. As to conditions: EK6, Mueller Hinton agar, 37° C., 18 hours, Examples 1, 2, 4, 5, 6, 8 and 22 as sodium salts, others as free carboxylic acids. As to the method: as §1
For data set [4], the system named is Serratia marcescens ES-75. The data set is described as above. Format: cell-based. As to conditions: ES75, Mueller Hinton agar, 37° C., 18 hours, Examples 1, 2, 4, 5, 6, 8 and 22 as sodium salts, others as free carboxylic acids. On the procedure: as §1
Another data set has as its system Escherichia coli NIHJ. Described as above. Format: cell-based. As to conditions: Mueller Hinton agar, 37° C., 18 hours, Examples 1, 2, 4, 5, 6, 8 and 22 as sodium salts, others as free carboxylic acids. On the procedure:
as §1

The nature of data set [5]: Acute toxicity (LD50, mouse, oral). As to conditions: in vivo. The source says: The acute toxicity values [LD50 (mouse, oral)] for the following compounds, for example, were over 5 g/kg: […]

Where a name gives a salt, the structure may show the parent alone.

Consider `CC(=O)Oc1cc2occ(C(=O)N[C@@H](C(=O)N[C@@H]3C(=O)N4C(C(=O)O)=C(CSc5nnnn5C)CS[C@H]34)c3ccccc3)c(=O)c2cc1OC(C)=O` [Example 5, Sodium salt of 7β-[D-2-(6,7-diacetoxychromone-3-carboxamido)-2-phenylacetamido]-3-[(1-methyltetrazol-5-yl)thiomethyl]-3-cephem-4-carboxylic acid], for which the MIC with Proteus morganii EP-14 was 0.4 µg/mL; in data set [1], 1.56 µg/mL; in data set [2], 0.4 µg/mL; in data set [3], ≤ 0.1 µg/mL; in data set [4] it was ≤ 0.1 µg/mL; with Escherichia coli NIHJ, 0.2 µg/mL. Further, in data set [5], the LD50 is > 5000 mg/kg.
